In article PMC7177897, “Benzylaminoethyureido-Tailed Benzenesulfonamides: Design, Synthesis, Kinetic and X-ray Investigations on Human Carbonic Anhydrases” (International Journal of Molecular Sciences, 2020):

How the values were obtained:
[1] = target: T1, hCA XII (Homo sapiens, UniProt O43570); assay: stopped-flow CO2 hydration assay; type: biochemical
T1 construct: gene CA12; recombinant, made by the authors as in earlier publications
From the text: stopped-flow CO2 hydration assay on hCA XII

[2] = target: T2, hCA I (Homo sapiens, UniProt P00915); assay: stopped-flow CO2 hydration assay; type: biochemical
T2 construct: gene CA1; crystals from hCA I purchased from Sigma-Aldrich, residues 4-260 visible, two monomers per asymmetric unit
From the text: stopped-flow CO2 hydration assay on hCA I

[3] = target: T3, hCA II (Homo sapiens, UniProt P00918); assay: stopped-flow CO2 hydration assay; type: biochemical
T3 construct: gene CA2; recombinant, made by the authors as in earlier publications; cytosolic isoform
From the text: stopped-flow CO2 hydration assay on hCA II

[4] = target: T4, hCA IX (Homo sapiens, UniProt Q16790); assay: stopped-flow CO2 hydration assay; type: biochemical
T4 construct: gene CA9; recombinant, made by the authors as in earlier publications
From the text: stopped-flow CO2 hydration assay on hCA IX

[5] = stopped-flow CO2 hydration assay; type: biochemical, Homo sapiens; settings: read-out: hCA I

T1 sequence (O43570 25-354 limits assumed): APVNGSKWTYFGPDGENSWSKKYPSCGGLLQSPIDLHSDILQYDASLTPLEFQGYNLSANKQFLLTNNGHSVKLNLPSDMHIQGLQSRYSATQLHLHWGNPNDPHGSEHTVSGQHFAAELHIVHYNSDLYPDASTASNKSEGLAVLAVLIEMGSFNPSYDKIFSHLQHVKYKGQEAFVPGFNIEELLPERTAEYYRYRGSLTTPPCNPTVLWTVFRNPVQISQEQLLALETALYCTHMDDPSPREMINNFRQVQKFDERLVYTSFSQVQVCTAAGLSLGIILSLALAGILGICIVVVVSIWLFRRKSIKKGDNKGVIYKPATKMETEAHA
T2 sequence (P00915 2-261): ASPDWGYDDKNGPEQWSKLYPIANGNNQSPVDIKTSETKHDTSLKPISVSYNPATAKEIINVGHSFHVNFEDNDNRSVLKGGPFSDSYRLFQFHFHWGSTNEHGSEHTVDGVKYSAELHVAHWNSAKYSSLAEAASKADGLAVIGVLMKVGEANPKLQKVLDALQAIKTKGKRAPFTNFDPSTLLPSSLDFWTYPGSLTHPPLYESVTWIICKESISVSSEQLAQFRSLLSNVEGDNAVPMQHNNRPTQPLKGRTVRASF

Compound | Ki [1] [nM] | Ki [2] [nM] | Ki [3] [nM] | Ki [4] [nM] | Ki [5] [nM]
NS(=O)(=O)c1ccc(NC(=O)NCCNCc2ccccc2)cc1 [compound 16, 4-(3-(2-(benzylamino)ethyl)ureido) benzenesulfonamide] | 54.5 | 552 | 350 | 1350 | 
NS(=O)(=O)c1ccc(NC(=O)NCCNCc2ccc(Cl)cc2)cc1 [compound 17, 4-(3-(2-((4-chlorobenzyl)amino)ethyl)ureido) benzenesulfonamide] | 32 | 582 | 127 | 458 | 
NS(=O)(=O)c1ccc(NC(=O)NCCNCc2ccc(F)cc2)cc1 [compound 18, 4-(3-(2-((4-fluorobenzyl)amino)ethyl)ureido) benzenesulfonamide] | 53.2 | 725 | 9.2 | 30.1 | 
NS(=O)(=O)c1ccc(NC(=O)NCCNCc2ccccc2F)cc1 [compound 19, 4-(3-(2-((2-fluorobenzyl)amino)ethyl)ureido) benzenesulfonamide] | 58.3 | 24.6 | 3.9 | 20.3 | 
NS(=O)(=O)c1ccc(NC(=O)NCCNCc2ccc(O)cc2)cc1 [compound 20, 4-(3-(2-((4-hydroxybenzyl)amino)ethyl)ureido) benzenesulfonamide] | 75.8 | 781 | 267 | 974 | 
NS(=O)(=O)c1ccc(NC(=O)NCCNCc2ccc([N+](=O)[O-])cc2)cc1 [compound 21, 4-(3-(2-((4-nitrobenzyl)amino)ethyl)ureido) benzenesulfonamide] | 77.5 | 527 | 96.1 | 317 | 
CN(C)c1ccc(CNCCNC(=O)Nc2ccc(S(N)(=O)=O)cc2)cc1 [compound 22, 4-(3-(2-((4-(dimethylamino)benzyl)amino)ethyl)ureido) benzenesulfonamide] | 264 | 1510 | 73.2 | 343 | 
COc1cc([N+](=O)[O-])ccc1CNCCNC(=O)Nc1ccc(S(N)(=O)=O)cc1 [compound 23, 4-(3-(2-((2-methoxy-4-nitrobenzyl)amino)ethyl)ureido)benzenesulfonamide] | 53.6 | 788 | 82.4 | 291 | 
NS(=O)(=O)c1ccc(NC(=O)NCCNCc2ccc(Br)cc2O)cc1 [compound 24, 4-(3-(2-((4-bromo-2-hydroxybenzyl)amino)ethyl)ureido) benzenesulfonamide] | 97.6 | 138 | 5.3 | 116 | 
NS(=O)(=O)c1ccc(NC(=O)NCCNCc2ccc(-c3ccccc3)cc2)cc1 [compound 25, 4-(3-(2-(([1,1′-biphenyl]-4-ylmethyl)amino)ethyl)ureido) benzenesulfonamide] | 63.7 | 782 | 63.2 | 1150 | 
NS(=O)(=O)c1cccc(NC(=O)NCCNCc2ccccc2)c1 [compound 26, 3-(3-(2-(benzylamino)ethyl)ureido)benzenesulfonamide] | 772 | 928 | 76.3 | > 10000 | 
NS(=O)(=O)c1cccc(NC(=O)NCCNCc2ccc(Cl)cc2)c1 [compound 27, 3-(3-(2-((4-chlorobenzyl)amino)ethyl)ureido) benzenesulfonamide] | 228 | 702 | 36.9 | 3380 | 
NS(=O)(=O)c1cccc(NC(=O)NCCNCc2ccc(F)cc2)c1 [compound 28, 3-(3-(2-((4-fluorobenzyl)amino)ethyl)ureido) benzenesulfonamide] | 71.3 | 868 | 53.8 | 4210 | 
NS(=O)(=O)c1cccc(NC(=O)NCCNCc2ccccc2F)c1 [compound 29, 3-(3-(2-((2-fluorobenzyl)amino)ethyl)ureido) benzenesulfonamide] | 479 | 728 | 33.4 | > 10000 | 
NS(=O)(=O)c1cccc(NC(=O)NCCNCc2ccc(O)cc2)c1 [compound 30, 3-(3-(2-((4-hydroxybenzyl)amino)ethyl)ureido) benzenesulfonamide] | 317 | 6250 | 166 | 3510 | 
NS(=O)(=O)c1cccc(NC(=O)NCCNCc2ccc([N+](=O)[O-])cc2)c1 [compound 31, 3-(3-(2-((4-nitrobenzyl)amino)ethyl)ureido) benzenesulfonamide] | 60.7 | 5850 | 168 | 2320 | 
CN(C)c1ccc(CNCCNC(=O)Nc2cccc(S(N)(=O)=O)c2)cc1 [compound 32, 3-(3-(2-((4-(dimethylamino)benzyl)amino)ethyl)ureido) benzenesulfonamide] | 78 | 8910 | 565 | 1200 | 
COc1cc([N+](=O)[O-])ccc1CNCCNC(=O)Nc1cccc(S(N)(=O)=O)c1 [compound 33, 3-(3-(2-((2-methoxy-4-nitrobenzyl)amino)ethyl)ureido)benzenesulfonamide] | 53.1 | > 10000 | 90.2 | 2610 | 
NS(=O)(=O)c1cccc(NC(=O)NCCNCc2ccc(Br)cc2O)c1 [compound 34, 3-(3-(2-((4-bromo-2-hydroxybenzyl)amino)ethyl)ureido) benzenesulfonamide] | 7.2 | 654 | 2.8 | 1920 | 
NS(=O)(=O)c1cccc(NC(=O)NCCNCc2ccc(-c3ccccc3)cc2)c1 [compound 35, 3-(3-(2-(([1,1’-biphenyl]-4-ylmethyl)amino)ethyl)ureido) benzenesulfonamide] | 688 | > 10000 | 456 |  | > 10000
